Results from paper PMC7380166, “How to Study the Metabolism of New Psychoactive Substances for the Purpose of Toxicological Screenings—A Follow-Up Study Comparing Pooled Human Liver S9, HepaRG Cells, and Zebrafish Larvae” (Frontiers in Chemistry, 2020).
Like-named read-outs stand apart in the source and are kept apart here.

Key:
[1] = system: zebrafish larvae; assay: In vivo maximum-tolerated concentration (MTC) study in zebrafish larvae; set-up: species or system zebrafish (Danio rerio); settings: for Survival rate: 24-h treatment, fifteen larvae
Experimental: Internal protocols based on published standard methods (Westerfield, [2007]) were used to perform zebrafish husbandry and the maximum-tolerated concentration (MTC) testing was based on a previous study (Richter et al., [2019a]). Danieau's medium [17 mM NaCl, 2 mM KCl, 0.12 mM MgSO4, 1.8 mM Ca(NO3)2, 1.5 mM HEPES, pH 7.1–7.3, and 1.2 μM methylene blue] at 28°C was used to raise zebrafish larvae of the AB wild-type strain. For MTC testing, 96-well plates were used with 100 μl of medium and one larva per well. Drug exposition was started 4 dpf using 0, 0.01, 0.1, 1, 10, 50, or 100 μM final concentrations of 3,4-DMA-NBOMe, ephylone, 4F-MDMB-BINACA, 4F-PHP, or 1P-LSD, respectively. The drug exposure in the incubator at 28°C lasted 24 h. The final DMSO concentration was 1% (v/v) for all experiments. Monitoring of the larvae was done using a LEICA M205 FA stereo microscope (Leica Mikrosysteme Vertrieb GmbH, Wetzlar, Germany) to detect developmental defects and/or decreased survival rates. Fifteen larvae were used for each experiment.

[2] = system: zebrafish larvae; assay: Zebrafish larvae exposure, metabolite identification by LC-HRMS/MS; settings: 24 h; for Absolute peak area, Zebrafish larvae [100 µM]: 100 µM parent NPS in medium; for Absolute peak area, Zebrafish larvae [100 µM] / Absolute peak area, Zebrafish larvae [25 μM]: larvae 4 dpf, larvae extract, one replicate of n = 3, n.d. = not detected; for Absolute peak area, Zebrafish larvae [25 μM]: 25 μM 4F-MDMB-BINACA in medium
[3] = system: HepaRG cells; assay: Incubations with HepaRG cells, metabolite identification by LC-HRMS/MS; type: in vitro ADME, human; settings: 24 h; for Absolute peak area, HepaRG [25 μM]: 25 μM parent NPS; for Absolute peak area, HepaRG [25 μM] / Absolute peak area, HepaRG [250 μM]: cell culture medium, one replicate of n = 3, n.d. = not detected; for Absolute peak area, HepaRG [250 μM]: 250 μM parent NPS
[4] = system: monooxygenases; settings: initial monooxygenases activity screenings described elsewhere; ref Caspar et al., [2018a]; Wagmann et al., [2019b],[c]; cited from earlier work
[5] = cited from earlier work; for Detection in pHLS9 [25 µM]: n = 2, according to literature
[6] = Incubations with pooled human liver S9 fraction (pHLS9), metabolite identification by LC-HRMS/MS; type: in vitro ADME; settings: 25 μM 4F-MDMB-BINACA, one replicate of n = 2, n.d. = not detected; for Absolute peak area, pHLS9 1 h [25 μM]: 1 h incubation; for Absolute peak area, pHLS9 6 h [25 μM]: 6 h incubation
Experimental: According to published procedures (Richter et al., [2017b], [2019b]; Caspar et al., [2018b]; Wagmann et al., [2019b],[c]), the final incubation volume per reaction tube was 150 μl, with a final protein concentration of 2 mg/ml. The given concentrations represent final concentrations. A preincubation for 10 min at 37°C with UGT reaction mixture solution B (containing alamethicin, 25 μg/ml), MgCl2 (2.5 mM), NADP^+ (0.6 mM), isocitrate (2.5 mM), isocitrate dehydrogenase (0.8 U/ml), superoxide dismutase (100 U/ml), acetyl coenzyme A (0.1 mM), phosphate buffer (90 mM, pH 7.4), and pHLS9 (2 mg/ml) was done. Afterwards, UGT reaction mixture solution A (containing UDP glucuronic acid, 2.5 mM), PAPS (40 μM), SAM (1.2 mM), dithiothreitol (1 mM), and glutathione (10 mM) were added, as well as 25 μM 4F-MDMB-BINACA to start the reactions. The mixture was incubated for 360 min. Total amount of organic solvent in incubation mixtures was <2% (Chauret et al., [1998]). After 60 min, an aliquot of the reaction mixture (60 μl) was transferred in another reaction tube containing 20 μl of ice-cold acetonitrile to terminate the reactions. The remaining aliquot (90 μl) was incubated for an additional 300 min, and then the reactions were stopped by adding 30 μl of ice-cold acetonitrile. Thereafter, the reaction tubes were cooled at −20°C for 30 min prior to centrifugation at 18,407 × g for 2 min. The supernatants (50 μl) were transferred into autosampler vials, and 1 μl was injected onto the LC-HRMS/MS system. Control samples without pHLS9 and blank samples without substrate were prepared to confirm the absence of non-metabolically formed and interfering compounds, respectively. All incubations were performed in duplicate.
According to a previous study (Richter et al., [2019a]), a Thermo Fisher Scientific (TF, Dreieich, Germany) Dionex UltiMate 3000 Rapid Separation (RS) UHPLC system with a quaternary UltiMate 3000 RS pump and an UltiMate 3000 RS autosampler controlled by the TF Chromeleon software version 6.8 was used. The LC system was coupled to an Orbitrap-based TF Q-Exactive Plus equipped with a heated electrospray ionization II (HESI-II) source. Calibration was done prior to analysis with a Positive Cal Mix (Supelco, Bellefonte, PA, USA) at a flow rate of 3 μl/min using a syringe pump. The conditions of the LC system were as follows: TF Accucore PhenylHexyl column (100 × 2.1 mm, 2.6 μm particle size); gradient elution with 2 mM ammonium formate solution containing 0.1% (v/v) formic acid (eluent A) and 2 mM ammonium formate solution in acetonitrile/methanol (50:50, v/v) containing 0.1% (v/v) formic acid, and 1% (v/v) water (eluent B). […] The following gradient was used: 0–1.0 min hold 1% B, 1–10 min to 99% B, 10–11.5 min hold 99% B, 11.5–13.5 min hold 1% B. The HESI-II source conditions were as follows: ionization mode, positive; heater temperature, 320°C; ion transfer capillary temperature, 320°C; sheath gas, 60 arbitrary units (AU); auxiliary gas, 10 AU; spray voltage, 4.00 kV; and S-lens RF level, 50.0. Mass spectrometry experiments were performed using high-resolution (HR) full scan mode and a targeted MS^2 mode with an inclusion list for each NPS. The inclusion list contained m/z values of metabolites, which were likely to be formed for example hydroxy, oxo, carboxy, dealkyl, demethylenylated, and defluorinated metabolites (phase I) as well as sulfates and glucuronides (phase II) and combinations of them. Full scan settings were as follows: resolution, 35,000; automatic gain control (AGC) target, 3e6; maximum injection time (IT), 120 ms; scan ranges, 3,4-DMA-NBOMe m/z 100–700, ephylone m/z 200–600, 4F-MDMB-BINACA m/z 150–700, 4F-PHP m/z 200–600, and 1P-LSD m/z 250–700. The settings for the targeted MS^2 mode with the respective inclusion lists were as follows: resolution, 17,500; AGC target, 2e5; maximum IT, 250 ms; loop count, 5; isolation window, 1.0 m/z; stepped normalized collision energy (NCE), 17.5, 35, 52.5%; pick others, enabled. […]

[7] = human biosamples after intake of ephylone and 4F-PHP; ref Wagmann et al., [2019b]; cited from earlier work
[8] = 25 μM, ref Caspar et al., [2018b]
[9] = ephylone and metabolites, ref Wagmann et al., 2019a

| Structure (SMILES) | Absolute peak area, Zebrafish larvae [100 µM] [2] | Absolute peak area, HepaRG [25 μM] [3] | Absolute peak area, HepaRG [250 μM] [3] | Absolute peak area, pHLS9 1 h [25 μM] [6] | Absolute peak area, pHLS9 6 h [25 μM] [6] | Absolute peak area, Zebrafish larvae [25 μM] [2] | other results |
| --- | --- | --- | --- | --- | --- | --- | --- |
| COc1ccccc1CNC(C)Cc1ccc(OC)c(OC)c1 (stereo not drawn) [3,4-DMA-NBOMe, 1-[3,4-dimethoxy]-N-[ortho-methoxybenzyl]propane-2-amine] | 6.22E+09 | 1.48E+09 | 1.03E+10 |  |  |  | Survival rate ([1]; 0.01 μM, larvae 4 dpf): 100%; Survival rate ([1]; 0.1 μM, larvae 4 dpf): 100%; Survival rate ([1]; 1 μM, larvae 4 dpf): 100%; Survival rate ([1]; 10 μM, larvae 4 dpf): 100%; Survival rate ([1]; 50 μM, larvae 4 dpf): 100%; Survival rate ([1]; 100 μM, larvae 4 dpf): 100%; Survival rates for all tested concentrations ([1]; 0.01 to 100 μM, larvae 4 dpf, 24 h): 100%; Concentration considered non-toxic for zebrafish larvae (4 dpf) ([1]; 24 h exposure via medium): 100 µM; Malformations ([1]; up to 100 μM, larvae 4 dpf, 24 h): no malformations; Number of phase I metabolites detected, Zebrafish larvae ([2]; 100 μM in medium): 9; Number of phase II metabolites detected, Zebrafish larvae ([2]; 100 μM in medium): 7; Number of phase I metabolites detected, HepaRG [25 μM] ([3]; 25 μM): 6; Number of phase II metabolites detected, HepaRG [25 μM] ([3]; 25 μM): 4; Number of phase I metabolites detected, HepaRG [250 μM] ([3]; 250 μM): 10; Number of phase II metabolites detected, HepaRG [250 μM] ([3]; 250 μM): 7; Monooxygenases involved in metabolism [4]: CYP3A4 was described to be involved in the N-dealkylation and CYP2C19 and CYP2D6 in the O-demethylation and hydroxylation; Number of phase I metabolites detected, pHLS9 [25 μM] [5, 8]: 6 (Caspar et al., [2018b]); Number of phase II metabolites detected, pHLS9 [25 μM] [5, 8]: 5 (Caspar et al., [2018b]); Detection in pHLS9 [25 µM] ([5]; 3,4-DMA-NBOMe and metabolites, ref Caspar et al., 2018): + |
| CC(C)(C)[C@H](NC(=O)c1n[nH]c2ccccc12)C(=O)O [MB3] |  | 3.99E+05 | 6.92E+06 | 9.07E+05 | 1.27E+06 |  |  |
| CC1(C)COC(=O)C1NC(=O)c1nn(CCCCO)c2ccccc12 (stereo not drawn) [MB5] |  |  | 2.40E+05 |  | 1.26E+06 | 9.42E+05 |  |
| CC(C)(C)[C@H](NC(=O)c1nn(CCCCO)c2ccccc12)C(=O)O [MB7] |  | 1.25E+06 | 1.34E+07 |  | 1.91E+06 | 5.96E+04 |  |
| CC1(C)COC(=O)C1NC(=O)c1nn(CCCC(=O)O)c2ccccc12 (stereo not drawn) [MB9] |  |  |  |  | 1.57E+05 | 2.53E+06 |  |
| CC(C)(CO)C(NC(=O)c1nn(CCCCF)c2ccccc12)C(=O)O (stereo not drawn) [MB13] |  |  | 3.13E+07 | 7.30E+03 | 6.42E+05 | 4.57E+05 |  |
| COC(=O)[C@@H](NC(=O)c1nn(CCCC(=O)O)c2ccccc12)C(C)(C)C [MB15] |  | 1.15E+04 | 8.00E+06 | 2.16E+06 | 3.34E+06 | 2.60E+07 |  |
| CCCC(N)C(=O)c1ccc2c(c1)OCO2 (stereo not drawn) [ME1] | 4.12E+06 | 4.14E+06 | 2.21E+07 |  |  |  | Signals with the highest abundance in human plasma and/or urine [7]: highest ephylone-related signals; Detection in pHLS9 [25 µM] [5, 9]: + |
| CCCC(NCC)C(=O)c1ccc(O)c(O)c1 (stereo not drawn) [ME2] | 4.44E+06 | 1.72E+05 | 6.37E+05 |  |  |  | Signals with the highest abundance in human plasma and/or urine [7]: highest ephylone-related signals; Detection in pHLS9 [25 µM] [5, 9]: + |
